According to the supplement of paper PMC11061612:

Tests used:
Experiment in all cases: combination Emax (second highest fraction inhibited in the dose matrix, 72 h); higher = more inhibition; extreme values may be limits of the assay
[1] = system: SU-DHL-8 (B-Cell Non-Hodgkin's Lymphoma)
Outline: (§1)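 Bliss excess equals the observed combination effect minus the expected value EA + EB − EA·EB, where EA and EB are the effects of each agent alone. Combination Emax is the second-highest inhibition within the matrix. Inhibition was scaled from CellTiter-Glo 2.0 luminescence, with 0 set by vehicle wells and 1 by blank wells, after 72 hours of two-drug dosing of cells plated in 1536-well plates.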

NCI-H2818 (Mesothelioma) = system: NCI-H2818 (Mesothelioma)
Outline: as §1

[2] = system: HL-60 (Acute Myeloid Leukemia)
Outline: as §1

WIL2-NS (Non-Cancerous) = system: WIL2-NS (Non-Cancerous)
Outline: as §1

[3] = system: MOLT-16 (T-Lymphoblastic Leukemia)
Outline: as §1

[4] = system: EVSA-T (Breast Carcinoma)
Outline: as §1

[5] = system: CAMA-1 (Breast Carcinoma)
Outline: as §1

[6] = system: DiFi (Colorectal Carcinoma)
Outline: as §1

[7] = system: MS751 (Cervical Carcinoma)
Outline: as §1

[8] = system: KYSE-180 (Esophageal Squamous Cell Carcinoma)
Outline: as §1

[9] = system: BFTC-905 (Bladder Carcinoma)
Outline: as §1

[10] = system: MKN28 (Gastric Carcinoma)
Outline: as §1

[11] = system: MFM-223 (Breast Carcinoma)
Outline: as §1

WM-115 (Melanoma) = system: WM-115 (Melanoma)
Outline: as §1

[12] = system: DND-41 (T-Lymphoblastic Leukemia)
Outline: as §1

[13] = system: TOV-112D (Ovarian Carcinoma)
Outline: as §1

[14] = system: SW837 (Colorectal Carcinoma)
Outline: as §1

TC-71 (Ewing's Sarcoma) = system: TC-71 (Ewing's Sarcoma)
Outline: as §1

[15] = system: L-540 (Hodgkin's Lymphoma)
Outline: as §1

[16] = system: TE-6 (Esophageal Squamous Cell Carcinoma)
Outline: as §1

| Compound | combination Emax [1] | combination Emax (NCI-H2818 (Mesothelioma)) | combination Emax [2] | combination Emax (WIL2-NS (Non-Cancerous)) | combination Emax [3] | combination Emax [4] | combination Emax [5] | combination Emax [6] | combination Emax [7] | combination Emax [8] | combination Emax [9] | combination Emax [10] | combination Emax [11] | combination Emax (WM-115 (Melanoma)) | combination Emax [12] | combination Emax [13] | combination Emax [14] | combination Emax (TC-71 (Ewing's Sarcoma)) | combination Emax [15] | combination Emax [16] |
| --- | --- | --- | --- | --- | --- | --- | --- | --- | --- | --- | --- | --- | --- | --- | --- | --- | --- | --- | --- | --- |
| COc1cccc2c1C(=O)c1c(O)c3c(c(O)c1C2=O)C[C@@](O)(C(=O)CO)C[C@@H]3O[C@H]1C[C@H](N)[C@H](O)[C@H](C)O1 [Doxorubicin] + Cc1cc2ncnn2cc1Nc1ncc2c(n1)n(C1CCOCC1)c(=O)n2C [AZD7648] (first compound max 1 µM, 7x7, partner max 10 µM) | 0.943 | 0.694 | 0.994 | 1 | 1 | 0.787 | 0.469 | 0.701 | 0.891 | 0.858 | 0.974 | 0.503 | 0.671 | 0.678 | 0.889 | 0.926 | 0.516 | 0.965 | 0.931 | 0.322 |
| COc1cc2ncnc(Nc3ccc(F)c(Cl)c3)c2cc1OCCCN1CCOCC1 [Gefitinib] + CC(C)n1c(=O)n(C)c2cnc3cc(F)c(-c4ccc(OCCCN5CCCCC5)nc4)cc3c21 [AZD1390] (first compound max 10 µM, 7x7, partner max 0.3 µM) | 0.142 | 0.146 | 0.0178 | 0.397 | 0.363 | 0.27 | 0.111 | 0.919 | 0.133 | 0.246 | 0.212 | 0.0764 | 0.121 | 0.139 | 0.115 | 0.276 | 0.128 | 0.183 | 0.451 | 0.685 |
| CS(=O)(=O)CCNCc1ccc(-c2ccc3ncnc(Nc4ccc(OCc5cccc(F)c5)c(Cl)c4)c3c2)o1 [Lapatinib] + C[C@@H](Oc1cc(-c2cnn(C3CCNCC3)c2)cnc1N)c1c(Cl)ccc(F)c1Cl [Crizotinib] (first compound max 10 µM, 7x7, partner max 10 µM) | 0.694 | 0.59 | 0.941 | 0.607 | 0.992 | 0.985 | 0.321 | 1 | 0.987 | 0.952 | 0.963 | 0.779 | 0.662 | 0.877 | 0.946 | 0.791 | 0.772 | 0.758 | 0.911 | 0.835 |
| CC(=O)c1c(C)c2cnc(Nc3ccc(N4CCNCC4)cn3)nc2n(C2CCCC2)c1=O [Palbociclib] + CC1(C)CCC(CN2CCN(c3ccc(C(=O)NS(=O)(=O)c4ccc(NCC5CCOCC5)c([N+](=O)[O-])c4)c(Oc4cnc5[nH]ccc5c4)c3)CC2)=C(c2ccc(Cl)cc2)C1 [Venetoclax] (first compound max 10 µM, 7x7, partner max 1 µM) | 0.37 | 0.203 | 0.736 | 0.727 | 0.985 | 0.209 | 0.142 | 0.47 | 0.128 | 0.188 | 0.326 | 0.0507 | 0.346 | 0.0976 | 0.45 | 0.443 | 0.0079 | 0.272 | 0.257 | 0.264 |
| CC(=O)c1c(C)c2cnc(Nc3ccc(N4CCNCC4)cn3)nc2n(C2CCCC2)c1=O [Palbociclib] + Cc1c2c(nn1C)CSCc1cc(n(C)n1)CSc1cc(c3ccccc3c1)OCCCc1c(C(=O)O)n(C)c3c-2c(Cl)ccc13 [AZD5991] (first compound max 10 µM, 7x7, partner max 1 µM) | 0.683 | 0.367 | 0.994 | 0.737 | 1 | 0.967 | 0.408 | 0.548 | 0.833 | 0.638 | 0.474 | 0.133 | 0.388 | 0.293 | 0.51 | 0.776 | 0.161 | 0.586 | 0.981 | 0.425 |
| CC(=O)c1c(C)c2cnc(Nc3ccc(N4CCNCC4)cn3)nc2n(C2CCCC2)c1=O [Palbociclib] + Cn1cnc2c(F)c(Nc3ccc(Br)cc3Cl)c(C(=O)NOCCO)cc21 [Selumetinib] (first compound max 10 µM, 7x7, partner max 10 µM) | 0.32 | 0.208 | 0.667 | 0.74 | 0.827 | 0.287 | 0.102 | 0.751 | 0.236 | 0.203 | 0.746 | 0.3 | 0.317 | 0.415 | 0.489 | 0.473 | 0.532 | 0.396 | 0.25 | 0.425 |
| COc1cccc(OCCCN)c1-c1cc(Nc2cnc(C#N)cn2)n[nH]1 [Prexasertib] + C=CCn1c(=O)c2cnc(Nc3ccc(N4CCN(C)CC4)cc3)nc2n1-c1cccc(C(C)(C)O)n1 [AZD1775] (first compound max 1 µM, partner max 1 µM) | 0.964 | 0.359 | 0.97 | 1 | 1 | 0.532 | 0.545 | 0.92 | 0.701 | 0.983 | 0.96 | 0.725 | 0.897 | 0.614 | 0.88 | 0.815 | 0.79 | 1 | 0.967 | 0.767 |
| COc1cccc(OCCCN)c1-c1cc(Nc2cnc(C#N)cn2)n[nH]1 [Prexasertib] + CCc1c2c(nc3ccc(O)cc13)-c1cc3c(c(=O)n1C2)COC(=O)[C@]3(O)CC [SN-38] (first compound max 1 µM, 7x7, partner max 0.3 µM) | 1 | 0.423 | 0.982 | 1 | 1 | 0.986 | 0.507 | 0.931 | 0.984 | 1 | 0.983 | 0.742 | 0.881 | 0.514 | 0.943 | 0.987 | 0.844 | 1 | 0.95 | 0.884 |
| COc1cccc(OCCCN)c1-c1cc(Nc2cnc(C#N)cn2)n[nH]1 [Prexasertib] + CN(C)CCCOc1ccc(-c2ccc3ncc4c(c3c2)n(C2CCOCC2)c(=O)n4C)cn1 [AZD0156] (first compound max 1 µM, 7x7, partner max 1 µM) | 0.964 | 0.282 | 0.956 | 1 | 1 | 0.252 | 0.327 | 0.878 | 0.378 | 0.983 | 0.888 | 0.597 | 0.74 | 0.566 | 0.811 | 0.614 | 0.803 | 0.977 | 0.968 | 0.567 |
| COc1cccc(OCCCN)c1-c1cc(Nc2cnc(C#N)cn2)n[nH]1 [Prexasertib] + C[C@@H]1COCCN1C2=NC(=NC(=C2)C3(CC3)[S@](=N)(=O)C)C4=C5C=CNC5=NC=C4 [AZD6738] (first compound max 1 µM, 7x7, partner max 10 µM) | 0.964 | 0.387 | 0.971 | 1 | 1 | 0.343 | 0.417 | 0.881 | 0.383 | 0.989 | 0.917 | 0.597 | 0.814 | 0.59 | 0.891 | 0.796 | 0.752 | 0.962 | 0.963 | 0.695 |
| COc1cccc(OCCCN)c1-c1cc(Nc2cnc(C#N)cn2)n[nH]1 [Prexasertib] + Cc1cc2ncnn2cc1Nc1ncc2c(n1)n(C1CCOCC1)c(=O)n2C [AZD7648] (first compound max 1 µM, 7x7, partner max 10 µM) | 0.968 | 0.344 | 0.961 | 1 | 1 | 0.358 | 0.384 | 0.864 | 0.453 | 0.974 | 0.856 | 0.575 | 0.763 | 0.59 | 0.844 | 0.711 | 0.749 | 0.945 | 0.962 | 0.554 |
| COc1cccc(OCCCN)c1-c1cc(Nc2cnc(C#N)cn2)n[nH]1 [Prexasertib] + O=C(c1cc(Cc2n[nH]c(=O)c3ccccc23)ccc1F)N1CCN(C(=O)C2CC2)CC1 [Olaparib] (first compound max 1 µM, 7x7, partner max 10 µM) | 0.943 | 0.285 | 0.961 | 1 | 1 | 0.433 | 0.37 | 0.924 | 0.465 | 0.983 | 0.848 | 0.46 | 0.703 | 0.556 | 0.85 | 0.796 | 0.645 | 0.987 | 0.975 | 0.476 |
| COc1cc2c(cc1OCCCCCOc1cc3c(cc1OC)C(=O)N1C=C(C)C[C@H]1C=N3)N=C[C@@H]1CC(C)=CN1C2=O [SG3199] + O=C(c1cc(Cc2n[nH]c(=O)c3ccccc23)ccc1F)N1CCN(C(=O)C2CC2)CC1 [Olaparib] (first compound max 0.001 µM, 7x7, partner max 10 µM) | 0.55 | 0.161 | 0.133 | 0.247 | 0.659 | 0.276 | 0.109 | 0.107 | 0.176 | 0.0586 | 0.152 | 0.0709 | 0.128 | 0.206 | 0.216 | 0.269 | 0.0782 | 0.518 | 0.32 | 0.117 |
